According to patent publication US7160992B2, “Amino-modified polysaccharides and methods of generating and using same” (Yeda Research and Development Co., Ltd., priority 2003, dated 2007):
Converted amounts (≈) assume the structure as drawn. “And” between values parts separate entries of the source, which are not always exact repeats. Equal values may be shown once.

Legend:
P. aeruginosa = test: Minimal inhibitory concentration, serial two-fold dilutions in TSB; type: cell-based
E. faecalisr = test: as above; type: cell-based
[1] = tested on: U38, PM1, H9 cells and PBMC; test: Cellular uptake of AAC-FITC fluorescent probes, fluorescence microscopy; type: cell-based; settings: 0.5 μM, 10 minutes of incubation
Experimental: Images were obtained using a Zeiss Axiophot microscope.
Cellular uptake using AAC fluorescent probes—U38, PM1, H9 cells and PBMC(10^5) were incubated for 20 minutes at room temperature in 100 μl RPMI 1640 medium (Gibco-BRL, Life-Technologies, UK) including AAC-FITC derivatives as indicated at a final concentration of 0.5 μM. Cells were washed twice, resuspended in 100 μl medium and analyzed with a Zeiss Axiophot fluorescent microscope.

HIV-1IIIB wild type = test: Inhibition of HIV-1IIIB wild type in MT2 or cMAGI cells; type: cell-based; settings: HIV-1IIIB wt; mean and standard deviation of three separate experiments; read-out: EC50, Wild-type
Text: The cMAGI assay is based on the ability of HIV-1 TAT to transactivate the expression of an integrated β-galactosidase reporter gene driven by the HIV-LTR [Chackerian, B. et al., 1997. J Virol. 71: 3932–3939; Collins, K. B. et al., 2000. Nat. Med. 6: 475–479]. The β-galactosidase reporter has been modified to remain localized in the nucleus where it can be detected with the X-gal substrate as an intense nuclear stain within a few days of infection. The X-gal substrate used was 5-bromo-4-chloro-3-indoyl-beta-D-galactopyranoside. HIV1IIIB was propagated by subculture in MT2 as described previously [Litovchick (2001) Supra]. Aliquots of cell-free culture supernatants were used as viral inoculum. […] The cytopathic effects of the viral infection of MT2 cells were analyzed by microscopic assessment of syncytium formation. These latter data were obtained by analysis of duplicate samples by two independent observers. HIV-1 infection of cMAGI cells was determined by counting the number of HIV-1 infected cells (stained blue).

CD4 = molecular target: T1, CD4 (Homo sapiens, UniProt P01730); settings: PHA stimulated peripheral blood lymphocytes; cited from earlier work
T1 construct: in PHA stimulated peripheral blood lymphocytes (PBL); host or cells: PHA stimulated peripheral blood lymphocytes (PBL)

B. subtilis = test: Minimal inhibitory concentration, serial two-fold dilutions in TSB; type: cell-based
ICR (CD-1) mice = test: Acute intravenous toxicity of NeoR6 in mice; type: in vivo
Experimental: Injection volumes applied ranged from 4–10 ml/kg
Observation of clinical signs post-NeoR6 injection—On the day of injection, careful clinical examinations were carried out continuously during the first 90 minutes post-injection. Thereafter, animals were inspected at least once a day for 14 consecutive days. Observations included changes in the skin and fur, eyes and mucous membranes, respiratory, circulatory, autonomic and central nervous systems, somatomotor activity and behavior pattern with particular attention to occurrence of tremors, convulsions, salivation, diarrhea, lethargy, sleep and coma.
Necropsy and Gross Pathology—All test animals, including decedents were subjected to gross necropsy. At necropsy all animals were thoroughly examined for abnormality of tissues or organs. All major body cavities were opened, larger organs were sectioned and the gastro-intestinal tract was opened at intervals for examination of the mucosal surfaces. The normal appearance of major organs was confirmed for each animal and any gross pathological changes or abnormalities were described.

CCR5 = molecular target: T2, CCR5 (Homo sapiens, UniProt P51681); settings: PHA stimulated peripheral blood lymphocytes; cited from earlier work
T2 construct: in PHA stimulated peripheral blood lymphocytes (PBL); host or cells: PHA stimulated peripheral blood lymphocytes (PBL)
T2 sequence (P51681 whole entry): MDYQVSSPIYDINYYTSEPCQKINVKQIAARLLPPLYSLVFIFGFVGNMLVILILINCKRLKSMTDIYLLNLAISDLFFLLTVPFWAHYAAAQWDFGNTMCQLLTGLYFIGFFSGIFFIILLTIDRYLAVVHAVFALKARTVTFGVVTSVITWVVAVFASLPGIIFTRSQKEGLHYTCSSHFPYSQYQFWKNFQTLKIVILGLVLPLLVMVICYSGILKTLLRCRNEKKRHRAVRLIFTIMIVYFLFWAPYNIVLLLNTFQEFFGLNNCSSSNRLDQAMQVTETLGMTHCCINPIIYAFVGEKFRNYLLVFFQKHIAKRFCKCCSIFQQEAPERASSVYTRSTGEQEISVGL

Gram-positive bacteria = test: Minimal inhibitory concentration, Gram-positive bacteria as a group; type: cell-based; settings: range over susceptible Gram-positive bacteria
TAR RNA = test: Fluorescence anisotropy: RhdRev binding and AAC competition for TAR RNA; design: species or system HIV-1
S. epidermidis = test: Minimal inhibitory concentration, serial two-fold dilutions in TSB; type: cell-based
cMAGI cells = test: Competition between FITC-labelled AACs and RANTES; type: cell-based; settings: 2.5 mM RANTES
Experimental: Competition between FITC labelled AACs (1 mM) and RANTES (2.5 mM, Pepro Tech Inc., New Jersey, USA) was effected in 2×10^5 cMAGI cells. Following 30 min of incubation, cells were washed with ice-cold wash buffer and analysed by flow cytometry as described above.

E. coli = test: Minimal inhibitory concentration, serial two-fold dilutions in TSB; type: cell-based
[2] = tested on: lymphocytes, PBMC and neurons; settings: cited from earlier work
CXCR4 = molecular target: T3, CXCR4 (Homo sapiens, UniProt P61073); test: Inhibition of anti-CXCR4 mAb 12G5 binding to cells, flow cytometry; type: cell-based; settings: 10 μM AAC
T3 construct: endogenous in cells; host or cells: PM1 cells and PBMC
T3 sequence (P61073 whole entry): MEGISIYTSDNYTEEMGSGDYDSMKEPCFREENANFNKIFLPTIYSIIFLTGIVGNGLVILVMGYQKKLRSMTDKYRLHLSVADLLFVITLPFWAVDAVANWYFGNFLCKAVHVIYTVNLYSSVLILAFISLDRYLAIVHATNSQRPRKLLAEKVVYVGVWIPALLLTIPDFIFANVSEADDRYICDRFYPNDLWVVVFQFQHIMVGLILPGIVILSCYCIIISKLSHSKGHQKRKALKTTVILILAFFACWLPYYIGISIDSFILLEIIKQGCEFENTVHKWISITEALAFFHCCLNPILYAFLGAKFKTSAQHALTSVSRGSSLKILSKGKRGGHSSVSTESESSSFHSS
Experimental: FIGS. 11a–d are graphs depicting the binding of AACs to CXCR4 in the presence of anti CXCR4 antibody (12G5). PM1 cells were incubated with PE-conjugated isotype control mAb, PE-anti CXCR4 conjugated mAb (12G5) alone, or in the presence of the indicated AACs for 30 min at 4° C. The cells were then washed twice with PBS and analyzed by flow cytometry. The MFI values are shown in parenthesis.
Interaction of AACs with CXCR4 was determined by flow cytometry (FACScan, Becton Dickinson) as described recently (Litovchick et al., 2001, supra). Briefly, 0.5×10^6 cells were washed in ice-cold PBS containing 0.1% sodium azide (wash buffer) and incubated at 4° C. with anti-CXCR4 mAb, 12G5 (PharMingen, San Diego, Calif.) conjugated to phycoerithrine (PE), in the absence or presence of different concentrations of the AACs. After 30 min of incubation, the cells were washed with ice-cold wash buffer and fixed in PBS containing 1% paraformaldehyde. Non-specific fluorescence was assessed by using isotype-matched control. For each sample 10,000 events were acquired. Data were analyzed and processed using CellQuest™ software (Becton Dickinson).

S. aureus = test: Minimal inhibitory concentration, serial two-fold dilutions in TSB; type: cell-based
RRE IIB RNA = test: Fluorescence anisotropy: RhdRev binding and AAC competition for RRE IIB RNA; design: species or system HIV-1

SMILES: NC(N)=NCCC[C@H](N)C(=O)NC[C@@H]1OC(O[C@H]2[C@@H](O)[C@H](O[C@@H]3[C@@H](O)[C@H](NC(=O)[C@@H](N)CCCN=C(N)N)C[C@H](NC(=O)[C@@H](N)CCCN=C(N)N)[C@H]3O[C@H]3O[C@H](CNC(=O)[C@@H](N)CCCN=C(N)N)[C@@H](O)[C@H](O)[C@H]3NC(=O)[C@@H](N)CCCN=C(N)N)O[C@@H]2CO)[C@H](NC(=O)[C@@H](N)CCCN=C(N)N)[C@@H](O)[C@@H]1O (stereo partly shown) [NeoR6, Neomycin hexa-arginine conjugate]
- MIC (P. aeruginosa): 100 µg/mL (≈ 64.4 µM)
- MIC (mg/L) (E. faecalisr): ≧200 mg/L
- cellular uptake of FITC-labeled AAC by PM1 cells [1]: uptaken by PM1 cells
- EC50 (HIV-1IIIB wild type): 1900 nM
- inhibition of binding of anti CD4 antibody (Leu 3a) (CD4): neither R3G nor R4K or NeoR6 inhibit the binding
- MIC (B. subtilis): 1.56 µg/mL (≈ 1.01 µM)
- adverse effects (ICR (CD-1) mice; 50 mg/kg as 2 successive injections, interdosing interval of 3 hours): did not cause any adverse effects other than a very transient reduction in respiratory rate and spontaneous motor activity
- weight gain (in words) (ICR (CD-1) mice; 14-day observation period, all mice except 2 females (10 or 30 mg/kg)): normal mode of weight gain
- maximum tolerated dose (MTD) (ICR (CD-1) mice; acute IV administration): 30 to 35 mg/kg
- pathological findings at necropsy (ICR (CD-1) mice; decedent and surviving animals): no pathological findings
- Weight Gain (gr.) (Day 1–15) (ICR (CD-1) mice; group 2F, 1 female, 15 mg/kg single bolus): 4.3 gr.
- Weight Gain (gr.) (Day 1–15) (ICR (CD-1) mice; group 3F, 1 female, 25 mg/kg single bolus): 5.3 gr.
- Weight Gain (gr.) (Day 1–15) (ICR (CD-1) mice; group 4F, 2 females, 30 mg/kg single bolus, one survivor): 1.6; — gr.
- clinical signs (ICR (CD-1) mice; single IV 30 and 35 mg/kg, confined to the first 10 min after dosing): respiratory and motoric irregularities
- mortality (ICR (CD-1) mice; single female mouse, 30 mg/kg IV): died within the first five minutes post-injection
- reaction to treatment (ICR (CD-1) mice; single intravenous administration, 10, 15 and 25 mg/kg): No obvious reaction to treatment
- toxicity when given intravenously (ICR (CD-1) mice; two single doses of 25 mg/kg of body weight over the course of 2 hours): non-toxic
- inhibition of binding of 2D7, a mAb directed to CCR5 (CCR5): neither R3G nor R4K or NeoR6 inhibit the binding
- MIC values, Gram-positive bacteria (Gram-positive bacteria): 0.78 to 6.25 µg/mL
- Kd (TAR RNA; competition of AACs with RhdRev (10 nM) for TAR RNA (20 nM) binding, 85 mM NaCl): 5 nM
- IC50 (TAR RNA; competition of AACs with RhdRev for TAR RNA binding): 19.9 ± 2.7 nM
- competition with RhdRev for TAR RNA binding (in words) (TAR RNA; up to 20 μM of AAC): efficiently competed
- MIC (S. epidermidis): 0.78 µg/mL (≈ 0.503 µM)
- effect of RANTES on uptake of FITC derivative (cMAGI cells): did not affect uptake
- MIC (E. coli): 100 µg/mL (≈ 64.4 µM)
- accumulation in cells [2]: accumulate in different cell types
- reduction of 12G5 mAb binding to the cells (CXCR4; PM1 cells, 30 min at 4° C.): 90%
- median fluorescence intensity (MFI) of PE-12G5 in presence of AAC (CXCR4; mAb alone 451, isotype control 30): 76
- MIC (S. aureus): 6.25 µg/mL (≈ 4.03 µM)
- Kd (RRE IIB RNA; competition of AACs with RhdRev (10 nM) for RRE IIB RNA (20 nM) binding, 85 mM NaCl): 23 nM and 23.3 nM
- IC50 (RRE IIB RNA; competition of AACs with RhdRev for RRE IIB RNA binding): 72.7 ± 10.1 nM
